Assay results taken from US20220273678A1 (priority 2020, published 2022).
Entries after “also recorded” stand apart in the source; their conditions may differ. Structures can show the parent of a compound that is named as a salt. Where two headings read alike, the source gives them in different places.

Legend:
[1] = system: IL-6, IL-10; type: cell-based, human
[2] = system: Calu3 cells; assay: XTT cell cytotoxicity assay in uninfected Calu3 cells; type: cell-based, human
Protocol: (§1) To measure cell viability to determine if there was any treatment-induced cytotoxicity, cells were plated and treated with drugs as described above. Cells were exposed to the same dilution series created for the in vitro efficacy studies. As above, vehicle-treated cells served as the 0% cytotoxicity control. After 24 h, cell viability was measured on a Synergy 2 Biotek microplate reader (Biotek Inc) via the XTT Cell Proliferation Assay Kit (ATCC® 30-1011K™) according to the manufacturer's protocol. Similar data were obtained in three independent experiments.

[3] = system: Nrf2, Keap1, HO-1; assay: Nrf2, Keap1 and HO-1 protein levels in Calu3 cells, flow cytometry; type: cell-based, human; settings: for HO-1 protein levels: Calu3, 10 μM DMF, 100-1000 nM Mito-MES, Mito-MES with DMF, 0.25 μM Brusatol, 10 μM 4F; for protein levels of Keap (Keap1) / protein levels of Nrf2: infected and uninfected Calu3
[4] = system: IL-6, IL-1β, IL-8, IL-10, TNF-α; type: cell-based, human; settings: 0.25 μM brusatol; for release of IL-6 from infected cells: 10 μM DMF, 10-100 μM DMF+100-1000 nM Mito-MES
[5] = system: SARS-CoV-2; assay: microbe, parasite or virus in culture; type: cell-based
[6] = system: icSARS-CoV-2-mNG; type: cell-based, SARS-CoV-2
[7] = system: uninfected cells; assay: XTT cell cytotoxicity assay in similarly treated uninfected cultures (Mito-TEMPO, 4F); type: cell-based; settings: Mito-TEMPO 10-1000 nM
Protocol: as §1

[8] = system: icSARS-CoV-2-mNG; type: cell-based, SARS-CoV-2; remark: listed apart in the source
[9] = system: hACE2 HEK293T cells and ALI HAE cultures; settings: 1000 nM

COC1=C(OC)C(=O)C(C/C=C(\C)CC/C=C(\C)CC/C=C(\C)CC/C=C(\C)CC/C=C(\C)CC/C=C(\C)CC/C=C(\C)CC/C=C(\C)CC/C=C(\C)CCC=C(C)C)=C(C)C1=O [CoQ10, Coenzyme Q10]
secretion / release of IL-6 [1]: reduced subsequent release of IL-6

COC(=O)/C=C/C(=O)OC [DMF, dimethyl fumarate]
cytotoxicity, XTT cell cytotoxicity assay ([2]; 100 μM DMF, 24 h): cytotoxic
HO-1 protein levels [3]: increased protein levels of heme oxygenase-1 (HO-1)
protein levels of Keap (Keap1) [3]: reduced protein levels of the endogenous Nrf2 inhibitor, Keap1; also recorded: reduced protein levels of Keap
protein levels of Nrf2 [3]: did not impact protein levels of Nrf2
release of IL-6 from infected cells [4]: reduction in subsequent release of IL-6
release of progeny SARS-CoV-2 virus particles, TCID50 assay ([5]; Calu3, 10 μM DMF pretreatment 24 h, alone or with 10-1000 nM Mito-MES): had anti-SARS-CoV-2 activity; also recorded: reduction in subsequent release of progeny SARS-CoV-2 virus particles
Viral replication by flow cytometry at 48 hpi in Calu3 cells ([5]; DMF 10 μM, Mito-MES 100 nM, Mito-MES 100 nM+DMF 10 μM, […]): 5.4%
Viral replication by flow cytometry at 48 hpi in Calu3 cells ([5]; DMF 100 μM, Mito-MES 100 nM+DMF 100 μM, control 9.3%): 2.1%

CC1(C)CC(NC(=O)C[P+](c2ccccc2)(c2ccccc2)c2ccccc2)CC(C)(C)N1[O] [Mito-TEMPO]
antiviral activity against fluorescent SARS-CoV-2 [6]: potent and similar antiviral activity
cytotoxicity, XTT cell cytotoxicity assay [7]: no observed cytotoxicity
antiviral activity against fluorescent SARS-CoV-2 [8]: potent and similar antiviral activity

CCCCCCCCCC[P+](c1ccccc1)(c1ccccc1)c1ccccc1.[Br-] [dTPP]
secretion / release of IL-6 [1]: reduced subsequent release of IL-6
cytotoxicity, XTT assay ([2]; uninfected Calu3, dTPP 1000 nM): not cytotoxic
cytotoxicity [9]: not cytotoxic
antiviral activity, viral replication by TCID50-assay ([5]; Calu3, dTPP 1000 nM): Antiviral activity was observed

brusatol
HO-1 protein levels [3]: increased the HO-1 protein levels
protein levels of Keap (Keap1) [3]: increased protein levels of Keap
protein levels of Nrf2 [3]: reduced protein levels of Nrf2
effect of brusatol on the anti-inflammatory effect of Mito-MES (IL-6) ([4]; Calu3): inhibited the anti-inflammatory effect of Mito-MES
release of IL-6 from infected cells [4]: significantly increased subsequent release of IL-6
percent of infected Calu3 cells positive for the N protein, flow cytometry (data not shown) ([5]; 10 nM Mito-MES+10 μM DMF, 0.25 μM brusatol): directly enhanced SARS-CoV-2 infection
effect of brusatol on the antiviral effect of DMF and Mito-MES ([5]; Calu3, 0.25 μM brusatol 24 h): inhibited the antiviral effect of both DMF alone and Mito-MES
release of progeny virus / SARS-CoV-2 replication, TCID50 ([5]; Calu3, 0.25 μM brusatol pretreatment): significantly increased SARS-CoV2 replication; also recorded: significantly increased subsequent release of progeny SARS-CoV-2 virus particles
Viral replication by flow cytometry at 48 hpi in Calu3 cells ([5]; Mito-MES 1000 nM, Brusatol 250 nM, Mito-MES 1000 nM+Brusatol 250 nM): 39.9%
